Measured values reported in patent US8470534B2, “Methods of predicting resistance or sensitivity to therapies for cancer” (priority 2006, dated 2013).

Columns and labels:
[1] = tested on: MCF7 donor or siRb xenograft tumors; assay: Nude mouse xenograft therapeutic study; assay type: in vivo, nude mice; settings: for tumor response (size at 4-day intervals): E2 pellet removed
Method: The xenograft model system is then utilized to test the response of RB-deficient tumors to CDDP therapy. Tumors are developed in the flanks of mice by injecting MCF7 donor or siRb cells into the flanks of mice and implanting a […] (E2) pellet into the back. When tumors reached 100-110 mm^3, mice received 5 mg/kg CDDP every 4 days for 5 courses.
To assess the role of RB in the therapeutic response of MCF7 cells in vivo, the xenograft model is again employed. Upon the attainment of tumors of approximately 100-120 mm^3, mice are deprived of estrogen and treated with Tam. […] (FIG. 4F). […] All tumors are weighed upon exclusion, and RB-deficient tumors are more than 3 times heavier than control tumors following Tam therapy (FIG. 4G).
Five- to 8-week-old female ovariectomized athymic nude mice are anesthetized, and an E2 pellet (1.7 mg/pellet, 90-day release) or placebo is surgically implanted in the back. Following implantation, 200 μl of a PBS- and phenol red-free Matrigel matrix basement membrane, solution (3:1) containing 2×10^6 cells is injected subcutaneously into the flank, or contralaterally where noted. Tumor volume is measured with calipers every 4 days using the equation V=0.52 (width)^2 ×(length). In the therapeutic studies, when tumor volume reaches 100-120 mm^3, animals are placed into 1 of 3 therapeutic groups (each group containing at least 6 animals): control animals retaining the estrogen pellet, antiestrogen-treated animals, or CDDP-treated animals. Animals in the antiestrogen treatment group are anesthetized, the estrogen pellet is surgically removed, and a Tam pellet (5 mg/pellet, 60-day release) implanted. The CDDP-treated animals receive 5 mg/kg CDDP injected i.p. on a q4dx5 schedule (every 4 days for 5 courses). All animals are injected i.p. with 150 mg/kg BrdU (Sigma-Aldrich) 1 hour prior to euthanization. Xenograft tumors are weighed and fixed in 10% neutral buffered formalin, paraffin embedded, and cut into 5-ÿm sections. For immunohistochemical staining, sections are deparaffinized in xylene and rehydrated through a graded series of ethanol/water solutions. A BrdU detection kit is utilized as recommended by the manufacturer. BrdU incorporation is scored in a blinded manner, and at least 500 cells per section are counted from several random fields.

[2] = tested on: MCF7, T47D, and Zr-75-1 cells; assay: Immunoblot of cyclin D1 and RB phosphorylation after hormone deprivation with Tam; assay type: cell-based, human; settings: wild-type cells; CDT serum in addition to Tam, 72 hours
Method: RB-deficient cells are able to bypass estrogen ablation therapy. To determine the effect of first-line breast cancer antiestrogen therapies on RB function, cells are exposed to several therapeutically relevant conditions. Specifically, wild-type MCF7, T47D, and Zr-75-1 cells are cultured in medium containing either FBS or charcoal dextran-treated (CDT) serum in addition to Tam, so as to antagonize ER function. […] U20S and SaOS2 cells are included as controls for RB and PI 61NK4a expression levels, respectively (FIG. 4a).
(§1) To study the effect of estrogen depletion, cells are cultured for 72 hours in phenol red-free DMEM supplemented with 10% CDT serum with addition of 10^−9 M 4-HydroxyTam or 10^−6 M ICI where indicated. Cell growth assays are performed by trypsinizing cells and counting by trypan blue exclusion every 3 days.
Cells are harvested by trypsinization and lysed in RIPA buffer. Equal amounts of protein, as determined by Bio-Rad DC assay, are resolved by SDS-PAGE. Specific proteins are detected by standard immunoblotting procedures using the following primary antibodies: p16INK4a (F-12; 1:500 dilution), cyclin D1 (H295), PCNA (pc10), cyclin E (HE12), cyclin A (C-19), MCM7 (141.2), E2F3 (C-18), cdk4 (H-22), lamin B (M-20), p21 (C-19), p53 (Ab-6; 1:500 dilution), RB phospho ser 780 (9307S; 1:500 dilution) and anti-RB (G3-245; 1:100 dilution). […]

[3] = tested on: ER-positive human breast tumors; assay: Recurrence outcome of ER-positive breast cancer patients on Tam monotherapy by RB/E2F target gene expression group; assay type: in vivo
Method: To determine the significance of RB/E2F target gene expression in human breast cancer, a tumor microarray data set representing 60 breast cancer patients with ER-positive disease who are treated with Tam monotherapy is analyzed. The tumor specimens in all cases are both micro- and macrodissected. […] This clustering placed the macro- and micro-dissected samples from 59 of 60 patients in the same gene expression groups, with only 1 tumor signature split between the high and medium gene expression groups on the condition tree.
To address the importance of the RB deficiency signature on therapeutic response, patient outcome is examined. […] For each patient, the time to disease recurrence is known, and a recurrence-free survival curve is generated (FIG. 6C). Patients responded poorly to Tam in the high expression group, wherein the median recurrence-free survival is 62.5 months, and only 35% remained recurrence free. […] Thus, compromised control of the RB/E2F axis is associated with poor response to Tam in human breast cancer.

[4] = tested on: MCF7 cells; assay: Cell growth assay in CDT/Tam over 9 days; assay type: cell-based, human
Method: To understand the impact of RB deficiency on the response to hormone deprivation therapy, cells are cultured in CDT, CDT/Tam, or in the presence of pure antiestrogen, ICI182780 (CDT/ICI). Following treatment with these modalities, cells are labeled with BrdU to determine the influence of each agent on cell-cycle progression and the corresponding influence of RB knockdown on this response (FIG. 4B). These experiments are recapitulated in the polyclonal populations of T47D and Zr-75-1 donor and siRb88 cells (FIG. 4C). […] To elucidate the long-term growth effects of these therapies, cell proliferation assays are performed over 9 days. RB-proficient and -deficient MCF7 cells are seeded at equal densities and cultured in CDT/Tam (FIG. 4D). […] Similar results are evident in the same experiments with both T47D and Zr-75-1 RB-proficient and -deficient polyclonal pools (FIG. 4E).
as §1

[5] = high expression group, Tam monotherapy

SMILES: CC/C(=C(\c1ccccc1)c1ccc(OCCN(C)C)cc1)c1ccccc1 [Tam, tamoxifen]
- tumor response (size at 4-day intervals) ([1]; RB-deficient MCF7 tumors, Tam pellet): did not regress
- tumor size reached in the presence of Tam ([1]; RB-deficient MCF7 tumors, therapy started at approximately 100-120 mm^3): ~150 mm^3
- tumor response (size at 4-day intervals) ([1]; RB-proficient MCF7 tumors, Tam pellet 5 mg/pellet): regressing to nearly immeasurable sizes
- tumor weight, RB-deficient tumors relative to control tumors ([1]; following Tam therapy): more than 3 times
- RB phosphorylation (immunoblot) [2]: RB dephosphorylation
- cyclin D1 levels (immunoblot) [2]: cyclin D1 levels decreased
- median recurrence-free survival [3, 5]: 62.5 months
- patients remaining recurrence free [3, 5]: 35%
- patients remaining disease free ([3]; low/medium RB target gene expression groups, Tam therapy): greater than 62%
- incidence of cancer recurrence ([3]; patients in the high RB/E2F target gene group, Tam monotherapy): 65%
- incidence of cancer recurrence ([3]; patients in the other 2 groups (low/medium), Tam monotherapy): 38%
- cell proliferation over 9 days ([4]; MCF7 cells lacking RB cultured in CDT/Tam): continue to proliferate
- cell proliferation over 9 days ([4]; control (RB-proficient) MCF7 cells cultured in CDT/Tam): did not exhibit cell proliferation
